# According to US20220332839A1, “USE OF PRG4 TO TREAT CANCER” (Lubris LLC, priority 2019, published 2022):
# Legend:
# Type in all cases: cell-based, human
# MDA-MB-231 cells [1] = test: In vitro scratch assay (migration); conditions: 36 h
# Description: 5×10^5 MDA-MB-231 cells were seeded in each well of a 12-well tissue culture plate and grown overnight to near confluency in complete growth medium and then overnight serum starved by incubating with 0.2% FBS-containing DMEM medium in a 5% CO2 humidified incubator at 37° C. incubator. […] Scratch closure in each well was followed by imaging the scratch and surrounding cells in each well at 3× objective of a DIC microscope (Olympus IX70) coupled to a digital camera at time 0 h and 36 h after initiating the scratch. Five images were captured along the vertical axis of the scratch for each experimental condition. The width of each scratch was measured at three different positions per image for a total of 15 measurements using ImageJ (National Institutes of Health, USA), and then averaged per experimental condition. The width average at 36 h was subtracted from the width average at 0 h and expressed relative to that at 0 h width for each experimental condition to obtain scratch closure, and expressed as percent scratch closure.
# HAS2 = HAS2 protein abundance in MDA-MB-231 cells (immunoblot); conditions: 100 pM TGFβ; 100 μg/mL rhPRG4 in the absence or presence of TGFβ
# Description: Cells were washed with PBS to remove all growth media. Appropriate volume of TNTE lysis buffer (50 mM Tris, 150 mM NaCl, 1 mM EDTA, 0.5% [v/v] Triton-X-100) containing protease and phosphatase inhibitors, was added to the cell monolayer and incubated at 4° C. under vigorous shaking for 20 minutes. Lysates were then collected in microcentrifuge tubes and centrifuged at 13,000 g for 10 minutes at 4° C. 5 μL of the lysate were subjected to protein concentration determination using Bradford-based protein assays (Bio-Rad Laboratories, Canada). Lysates were boiled for 3 minutes at 95° C. in dithiothreitol (DTT)-containing Laemmli sample buffer. For immunoprecipitation analyses, lysates were incubated with appropriate antibodies at 4° C. with gentle rocking for 3 h after which immunocomplexes were incubated with Protein G-conjugated agarose beads (UBPBio, USA) at 4° C. with gentle rocking for 3 h. Finally, the beads were washed with TNTE wash buffer (0.1% [v/v] Triton-X-100) and boiled for 5 minutes at 95° C. in dithiothreitol (DTT) containing Laemmli sample buffer. Immunoprecipitates and input lysates were then resolved by sodium dodecyl sulfate-polyacrylamide electrophoresis (SDS-PAGE) and transferred onto a nitrocellulose membrane (Bio-Rad Laboratories, Canada). […] Densitometric analyses were performed using Quantity One software (Bio-Rad Laboratories, Canada).
# MDA-MB-231 cells [2] = test: In vitro trans-well invasion assay
# Description: Overnight 0.2% FBS-containing DMEM incubated, i.e. serum-starved, MDA-MB-231 cells were used for the transwell invasion using polycarbonate filters (24-well insert, pore size 8 μm; BD Biosciences, Canada). Prior to addition of cells, each insert was placed within a well of a 24-well tissue culture plate and equilibrated with 0.5 mL serum-free DMEM, added both to the upper and lower chambers at 37° C. for 2 h. The equilibration media was then gently removed and upper chamber surface of the insert was coated with 50 μL of 3% Matrigel and allowed to solidify at 37° C. for 1 h. 1×10^5 serum-starved MDA-MB-231 cells were resuspended in 0.5 mL of serum-free DMEM and added to the upper Matrigel-coated chamber. 500 μL complete growth medium alone or containing specific reagents, as described in the respective figure descriptions, was added to the lower chambers. Cells were allowed to invade the matrix for 12 h at 37° C. after which non-adherent cells were removed by PBS washing of cell layers on the upper chamber three times. During the second wash a cotton tip applicator was used to gently scrape away the adherent cells on the upper surface of the membrane. Invading cells were fixed by immersing the transwell inserts in 100% methanol for 10 minutes at −20° C., followed by staining with 0.5% crystal violet dye (EMD Millipore, Canada) for 1 h at room temperature. Eight randomly chosen fields of each stained membrane were imaged at 10× objective of a DIC microscope (Olympus IX70) coupled to a digital camera. Cell numbers were obtained by counting the number of crystal violet stained cells in each field using a handheld counter. The average cell numbers for all images per treatment conditions were calculated and used for further statistical analysis. Each experiment was performed at least three independent times.
# 3TP-Lux reporter = test: 3TP-Lux luciferase reporter assay; conditions: 100 pM TGFβ
# Description: MDA-MB-231 cells were seeded in 24-well plates at approximately 6×10^4 cells/well one day prior to transfections. Cells were co-transfected with the PAI1-promoter-driven firefly luciferase Reporter (3TP-Lux) and the CMV-Renilla luciferase control reporter constructs. 18 h post transfection, cells were serum-starved (0.2% FBS containing DMEM) for 4 h and then incubated in fresh low-serum (0.2% FBS containing DMEM) containing media in the absence or presence of 100 pM TGFβ, 100 μg/mL rhPRG4 alone or together and left overnight. Lysates were prepared and analyzed for luciferase activity using a commercially available dual luciferase assay kit (Promega, Canada). Arbitrary luciferase activity (relative light units) values were normalized to Renilla luciferase activity to account for variations in transfection efficiency. For each transfection, percent increase of PAI1 promoter driven luciferase reporter gene expression was also determined and expressed relative to luciferase activity of the respective basal condition lysates. Each experimental condition was carried out in triplicate.
Substance,scratch closure in the absence or presence of TGFβ (MDA-MB-231 cells [1]; 100 μg/mL rhPRG4),"protein abundance of HAS2, immunoblotting (HAS2)","invasion of cells in the absence or presence of TGFβ (MDA-MB-231 cells [2]; 100 μg/mL rhPRG4, 100 pM TGFβ, 12 h)","cell invasion in the presence of LMWHA (MDA-MB-231 cells [2]; 400 μg/mL LMWHA, 5 μg/mL CD44 neutralizing antibody, 100 μg/mL rhPRG4)","TGFβ-induced 3TP-Lux reporter activity (3TP-Lux reporter; 100 μg/mL rhPRG4, overnight, 0.2% FBS)","scratch closure, TGFβ vs control well (MDA-MB-231 cells [1]; 100 pM TGFβ)","invasion of cells, stimulus alone vs untreated control (MDA-MB-231 cells [2]; 100 pM TGFβ, 400 μg/mL LMWHA)","3TP-Lux reporter activity, TGFβ alone (3TP-Lux reporter)"
rhPRG4: full-length recombinant human PRG4 (lubricin) glycoprotein produced by CHO-M cells; residues 25-1404 of SEQ ID NO:1,significantly delayed the scratch closure process,suppressed the protein abundance of HAS2,blocked the ability of MDA-MB-231 cells to be invasive,able to inhibit breast cancer cell invasion,did not alter TGFβ-induced 3TP-Lux reporter activity,–,–,–
TGFβ: recombinant human mature transforming growth factor beta (R&D systems) [reference compound],–,increased the protein abundance of HAS2,–,–,–,increased the scratch closure process,promote the invasion of MDA-MB-231 cells,significant induction of 3TP-Lux reporter activity
